Source: ChEMBL document CHEMBL4765410, “A cell-penetrant lactam-stapled peptide for targeting eIF4E protein-protein interactions” (Eur J Med Chem, 2020)
Active and inactive are the calls of the source. The calls are words filed in the database; no cut-off is given here. Bridge positions count the residues as written; N and C are the ends. Peptide text beside a SMILES is read from it.

Tests used:
[1] = biological target: T1, Eukaryotic translation initiation factor 4E (Homo sapiens, UniProt P06730); assay: Binding affinity to recombinant human 10His-tagged eIF4E expressed in Escherichia coli BL21 (DE3) cells assessed as association constant by surface plasmon resonance analysis
[2] = biological target: T2, EIF4E/EIF4G1 (Homo sapiens) (UniProt P06730+Q04637); assay: Inhibition of eIF4E/eIF4G interaction in human MCF7 cells incubated for 6 hr by m7GDP cap pull down assay; assay type: cell-based
[3] = biological target: T1, Eukaryotic translation initiation factor 4E; assay: Inhibition of recombinant human 10His-tagged eIF4E expressed in Escherichia coli BL21 (DE3) cells by catalytic enzyme-linked click chemistry assay
[4] = biological target: T2, EIF4E/EIF4G1 (Homo sapiens); assay: Inhibition of eIF4E/eIF4G interaction in human MDA-MB-231 cells incubated for 6 hr by m7GDP cap pull down assay; assay type: cell-based
[5] = Drug uptake in cytosol of human HeLa cells stably expressing Halo-tagged-GFP assessed as normalized fluorescence in cytosol at 0.74 uM incubated for 4 hrs by flow cytometry based CAPA relative to control; assay type: ADME, subcellular
[6] = biological target: T2, EIF4E/EIF4G1 (Homo sapiens); assay: Inhibition of eIF4E/eIF4G interaction in human T47D cells incubated for 6 hr by m7GDP cap pull down assay; assay type: cell-based
[7] = biological target: T1, Eukaryotic translation initiation factor 4E; assay: Binding affinity to recombinant human 10His-tagged eIF4E expressed in Escherichia coli BL21 (DE3) cells assessed as binding constant by surface plasmon resonance analysis
T47D = assay: Anti-proliferative activity against human T47D cells after 6 days by CellTiter-Glo assay; assay type: functional, cell-based; conditions: time 6.0 day
MDA-MB-231 = assay: Anti-proliferative activity against human MDA-MB-231 cells after 6 days by CellTiter-Glo assay; assay type: functional, cell-based; conditions: time 6.0 day
[8] = biological target: T1, Eukaryotic translation initiation factor 4E; assay: Binding affinity to eIF4E in HEK293 cell lysates assessed as thermal stabilization of protein at 1 to 15 uM incubated for 1 hrs followed by heating at 49 to 52.4 degC for 3 mins by CETSA-based Western blot analysis; assay type: subcellular; conditions: dose 1-15 µM
[9] = Drug uptake in cytosol of human HeLa cells stably expressing Halo-tagged-GFP assessed as normalized fluorescence in cytosol incubated for 4 hrs by flow cytometry based CAPA; assay type: ADME, subcellular
MCF7 = assay: Anti-proliferative activity against human MCF7 cells after 6 days by CellTiter-Glo assay; assay type: functional, cell-based; conditions: time 6.0 day
[10] = biological target: T1, Eukaryotic translation initiation factor 4E; assay: Inhibition of eIF4E in human MCF7 cells measured up to 42 hrs by m7GDP cap pull down assay; assay type: cell-based; conditions: time hrs <=42

T1 sequence (P06730 whole entry): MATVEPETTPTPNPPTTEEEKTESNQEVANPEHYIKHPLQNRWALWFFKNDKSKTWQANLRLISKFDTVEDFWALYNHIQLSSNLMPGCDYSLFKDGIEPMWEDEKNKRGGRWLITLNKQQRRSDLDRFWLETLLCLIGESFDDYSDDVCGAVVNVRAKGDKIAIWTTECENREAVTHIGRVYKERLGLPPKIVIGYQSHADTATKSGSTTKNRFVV

CC[C@H](C)[C@H](NC(=O)[C@H](CCCNC(=N)N)NC(=O)[C@@H](NC(=O)CNC(C)=O)[C@@H](C)O)C(=O)N[C@H](C(=O)N[C@@H](Cc1ccc(O)cc1)C(=O)N[C@@H](CC(=O)O)C(=O)N[C@@H](CCCNC(=N)N)C(=O)N[C@@H](CCCCN)C(=O)N[C@@H](Cc1ccccc1)C(=O)N[C@@H](CC(C)C)C(=O)N[C@@H](CCSC)C(=O)N[C@@H](CCC(=O)O)C(=O)N[C@@H](CS)C(=O)N[C@@H](CCCNC(=N)N)C(=O)N[C@@H](CC(N)=O)C(N)=O)[C@@H](C)CC
Ka [1]: 630000 M⁻¹ s⁻¹

CC[C@H](C)[C@H](NC(=O)[C@H](CCCNC(=N)N)NC(C)=O)C(=O)N[C@H](C(=O)N[C@@H](Cc1ccc(O)cc1)C(=O)N[C@@H](CC(=O)O)C(=O)N[C@@H](CCCNC(=N)N)C(=O)N[C@H]1CCC(=O)NCCCC[C@@H](C(=O)N[C@@H](CS)C(=O)N[C@@H](CCCNC(=N)N)C(N)=O)NC(=O)[C@H](CCSC)NC(=O)[C@H](CC(C)C)NC(=O)[C@H](Cc2ccccc2)NC1=O)[C@@H](C)CC (Ac-RIIYDREFLMKCR-NH2; lactam 7-11)
inhibition [2]: Dose-dependent effect
IC50 [3]: 6.5 nM
inhibition [4]: Dose-dependent effect
Drug uptake [5]: 20%
inhibition [6]: Dose-dependent effect
Kd [7]: 2.2 nM
Activity (T47D): inactive
Activity (MDA-MB-231): inactive
Activity [8]: Active
Q50 [9]: 1.5 µM
Activity (MCF7): inactive
Ka [1]: 3.1e+06 M⁻¹ s⁻¹
Activity [10]: Active

CC[C@H](C)[C@H](NC(=O)[C@H](CCCNC(=N)N)NC(C)=O)C(=O)N[C@H](C(=O)N[C@@H](Cc1ccc(O)cc1)C(=O)N[C@@H](CC(=O)O)C(=O)N[C@@H](CCCNC(=N)N)C(=O)N[C@H]1CCCCNC(=O)CC[C@@H](C(=O)N[C@@H](CS)C(=O)N[C@@H](CCCNC(=N)N)C(N)=O)NC(=O)[C@H](CCSC)NC(=O)[C@H](CC(C)C)NC(=O)[C@H](Cc2ccccc2)NC1=O)[C@@H](C)CC (Ac-RIIYDRKFLMECR-NH2; lactam 7-11)
IC50 [3]: 22 nM
Drug uptake [5]: 84%
Kd [7]: 7.2 nM
Activity [8]: inactive
Q50 [9]: 0.25 µM
Ka [1]: 580000 M⁻¹ s⁻¹
